Test results reported in patent EP4122499A1, “FIBROBLAST ACTIVATION PROTEIN INHIBITORS AND USE THEREOF” (3B Pharmaceuticals GmbH, priority 2021, dated 2023).

Columns and labels:
[1] = molecular target: T1, Recombinant human DPP4 (Homo sapiens, UniProt P27487); assay: DPP4 protease activity assay; assay type: biochemical; settings: 20 µM GP-AMC substrate
T1 construct: purchased R&D systems 9168-SE
Procedure: (§1) The PREP activity assay was performed using the FACS buffer (PBS including 1% FBS, Sigma-Aldrich, Cat# D8537). […] The DPP4 activity assay was performed in DPP assay buffer (25 mM Tris, pH 8.0).
(§2) Four parameter logistic (4PL) curve fitting and pIC50 calculations were performed using ActivityBase software.

[2] = molecular target: T2, Human recombinant FAP (Homo sapiens, UniProt Q12884); assay: FRET-based FAP protease activity assay (human); assay type: biochemical; set-up: purchased R&D systems 3715-SE; settings: FRET-peptide substrate, 37°C
T2 sequence (Q12884 1-760): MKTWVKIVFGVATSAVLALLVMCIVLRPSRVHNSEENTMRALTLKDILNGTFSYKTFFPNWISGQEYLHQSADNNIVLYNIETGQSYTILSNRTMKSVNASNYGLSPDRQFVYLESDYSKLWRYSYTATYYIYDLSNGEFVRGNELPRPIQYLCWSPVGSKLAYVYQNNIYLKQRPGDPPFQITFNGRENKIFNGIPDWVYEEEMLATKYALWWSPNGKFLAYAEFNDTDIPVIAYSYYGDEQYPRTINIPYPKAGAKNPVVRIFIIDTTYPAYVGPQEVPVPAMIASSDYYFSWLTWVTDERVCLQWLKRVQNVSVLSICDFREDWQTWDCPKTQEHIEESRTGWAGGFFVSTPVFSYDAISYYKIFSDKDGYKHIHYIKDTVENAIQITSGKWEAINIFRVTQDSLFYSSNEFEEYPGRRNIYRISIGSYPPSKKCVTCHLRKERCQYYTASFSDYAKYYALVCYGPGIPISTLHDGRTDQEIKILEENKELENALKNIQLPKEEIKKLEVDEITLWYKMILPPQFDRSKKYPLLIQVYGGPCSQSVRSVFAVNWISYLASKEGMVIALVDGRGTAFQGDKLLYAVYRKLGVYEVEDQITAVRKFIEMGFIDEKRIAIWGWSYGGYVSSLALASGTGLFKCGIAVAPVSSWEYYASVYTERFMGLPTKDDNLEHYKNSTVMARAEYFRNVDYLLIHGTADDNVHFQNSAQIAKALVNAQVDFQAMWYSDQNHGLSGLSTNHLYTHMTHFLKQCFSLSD
Procedure: In order to determine the inhibitory activity a FRET-based FAP protease activity assay was established.
25 µL of a 30 µM substrate solution, diluted in assay buffer, was added. […] Four parameter logistic (4PL) curve fitting and pIC50 calculations were performed using ActivityBase software (IDBS).

[3] = molecular target: T3, FAP-expressing human WI-38 fibroblasts (Homo sapiens, UniProt Q12884); assay: Competitive FACS binding assay (displacement of Cy5-labeled FAP inhibitor 3BP-2935); settings: 3 nM Cy5-labeled 3BP-2935, 4°C, 1 hour
T3 construct: FAP-expressing human WI-38 fibroblasts (ECACC 90020107) were cultured in EMEM; host or cells: WI-38 human fibroblasts
T3 sequence (Q12884 1-760): T2 sequence (Q12884 1-760)

[4] = molecular target: T4, recombinant human PREP (Homo sapiens, UniProt P48147); assay: PREP protease activity assay; assay type: biochemical; settings: 50 µM Z-GP-AMC substrate
T4 construct: purchased R&D systems 4308-SE
T4 sequence (P48147 1-710): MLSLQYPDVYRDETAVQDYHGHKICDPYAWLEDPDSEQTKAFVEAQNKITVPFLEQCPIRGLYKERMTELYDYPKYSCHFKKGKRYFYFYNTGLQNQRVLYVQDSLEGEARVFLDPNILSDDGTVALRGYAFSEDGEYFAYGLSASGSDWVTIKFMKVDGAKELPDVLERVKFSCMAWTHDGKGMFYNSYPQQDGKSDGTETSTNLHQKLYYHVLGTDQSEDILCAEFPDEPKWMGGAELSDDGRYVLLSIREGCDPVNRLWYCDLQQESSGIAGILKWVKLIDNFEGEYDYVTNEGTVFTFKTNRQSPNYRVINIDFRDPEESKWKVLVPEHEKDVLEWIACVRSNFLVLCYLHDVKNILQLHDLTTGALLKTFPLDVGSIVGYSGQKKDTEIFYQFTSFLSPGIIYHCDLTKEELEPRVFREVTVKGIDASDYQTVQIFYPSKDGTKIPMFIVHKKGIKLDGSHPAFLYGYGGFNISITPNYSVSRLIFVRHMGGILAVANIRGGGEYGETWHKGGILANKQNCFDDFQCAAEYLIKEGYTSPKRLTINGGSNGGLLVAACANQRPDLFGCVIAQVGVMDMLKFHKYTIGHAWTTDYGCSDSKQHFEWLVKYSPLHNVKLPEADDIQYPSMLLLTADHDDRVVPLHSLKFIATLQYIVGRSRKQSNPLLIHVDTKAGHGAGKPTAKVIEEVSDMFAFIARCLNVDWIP
Procedure: as §1, §2

T1 sequence (P27487 whole entry): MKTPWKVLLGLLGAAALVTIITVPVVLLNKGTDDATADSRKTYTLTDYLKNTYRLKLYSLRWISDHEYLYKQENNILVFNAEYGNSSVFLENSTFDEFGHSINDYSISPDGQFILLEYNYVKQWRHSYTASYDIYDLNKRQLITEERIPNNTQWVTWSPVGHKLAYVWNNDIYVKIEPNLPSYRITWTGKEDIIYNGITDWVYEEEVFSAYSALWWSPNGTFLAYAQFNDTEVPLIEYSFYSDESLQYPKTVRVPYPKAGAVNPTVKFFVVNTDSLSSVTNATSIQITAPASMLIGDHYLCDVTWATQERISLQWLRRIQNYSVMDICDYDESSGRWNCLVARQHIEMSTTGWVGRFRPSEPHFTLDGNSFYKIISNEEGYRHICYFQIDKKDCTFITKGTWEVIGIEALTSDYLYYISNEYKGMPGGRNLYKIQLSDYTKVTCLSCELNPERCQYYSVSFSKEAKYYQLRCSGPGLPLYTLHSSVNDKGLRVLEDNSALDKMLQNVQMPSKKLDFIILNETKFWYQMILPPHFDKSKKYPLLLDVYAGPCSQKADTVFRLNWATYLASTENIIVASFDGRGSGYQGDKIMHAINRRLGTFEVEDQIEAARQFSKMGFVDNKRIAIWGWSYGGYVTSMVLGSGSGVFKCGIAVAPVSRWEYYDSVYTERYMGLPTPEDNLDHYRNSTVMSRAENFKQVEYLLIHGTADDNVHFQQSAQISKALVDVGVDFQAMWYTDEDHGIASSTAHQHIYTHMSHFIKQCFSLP

SMILES	pIC50 (DPP4) [1]	pIC50 (Activity) [2]	pIC50 (FACS) [3]	pIC50 (PREP) [4]	IC50 ([1]; read-out: pIC50 (DPP4) (converted))	IC50 ([2]; read-out: pIC50 (Activity) (converted))	IC50 [3]	IC50 [4]
N#C[C@@H]1CC(F)(F)CN1C(=O)CNC(=O)c1ccnc2ccc(-c3ccc(S(=O)(=O)CCCNC(=O)CN4CCN(CC(=O)O)CCN(CC(=O)O)CCN(CC(=O)O)CC4)cc3)cc12	6.7	9.1	9.2	<6	–	–	–	–
O=C(O)CN1CCN(CC(=O)O)CCN(CC(=O)N2CCN(CCCOc3ccc4nccc(C(=O)NCC(=O)N5CC(F)(F)C[C@H]5C(=O)c5nc6ccccc6o5)c4c3)CC2)CCN(CC(=O)O)CC1	<6	8.6	7.9	6.7	–	–	–	–
CS(=O)(=O)c1cccc(-c2ccc3c(C(=O)NCC(=O)N4CC(F)(F)C[C@H]4C#N)ccnc3c2)c1 [drawing 289]	–	–	–	–	> 1000 nM	0.794 nM	2 nM	> 1000 nM
